This passage reports IC50 results from patent US20240360157A1, “TYK2 INHIBITORS” (BIOGEN MA INC., priority 2021, published 2024).

The structures appear in SMILES notation. Structures can show the parent of a compound that is named as a salt.

Usually IC50 stands for the midpoint of a concentration-inhibition curve.

Holding throughout (assay type): biochemical
Test [1] addresses human JAK3 catalytic kinase (JH1) domain (Homo sapiens (Human), UniProt P52333). Description: ADP-Glo Kinase Assay, recombinant JAK3 catalytic kinase (JH1) domain. To be noted: recombinant JH1 domain 0.3 nM, 4 μM ATP, JAK3-974 peptide, mean, read-out: JAK3 biochem IC50 (nM) Mean. The procedure: (§1) Compounds of the disclosure were assessed for their ability to inhibit TYK2, JAK1, JAK2, and JAK3 activity. The inhibitory properties of the compounds of the disclosure described herein can be evidenced by testing in any one of the following protocols.
(§2) The kinase activity of recombinantly generated catalytic kinase (also known as JH1) domain of human JAK1, JAK2, JAK3 and TYK2 were evaluated in a plate-based assay using the ADP-Glo™ Kinase Assay platform. Specifically, 4 nM of recombinant JAK1 kinase domain is used to phosphorylate 50 μM of a JAK3-342 (sequence ALVDGYFRLTT) peptide in the presence of 35 μM ATP. Catalytic activities of recombinant JAK2, JAK3 and TYK2 kinase domain (0.2, 0.3 and 2 nM, respectively) are evaluated by the phosphorylation status of the JAK3-974 (50 μM; sequence LPLDKDYYVVR) peptide with the addition of ATP (15, 4 and 10 μM, respectively). The reactions proceed for 100 minutes and the catalytic activity is quantified by first depleting the unused ATP, converting the hydrolyzed ADP into ATP to generate luminescence in a luciferase reaction; which is the basis of the ADP-Glo platform. Compounds are tested at either 10 μM or 1 μM top concentration, 11 points of 3-fold dilution. The data is normalized and the percent activity versus log concentration of compound is fitted with a 4-parameter logistic model to generate a curve and an IC50 value.
For orientation: ADP-Glo first removes unused ATP, then detects ADP through luciferase.

In test [2] the target is human TYK2 catalytic kinase (JH1) domain (Homo sapiens (Human), UniProt P29597). Description: ADP-Glo Kinase Assay, recombinant TYK2 catalytic kinase (JH1) domain. To be noted: recombinant JH1 domain 2 nM, 10 μM ATP, JAK3-974 peptide, mean, read-out: TYK2 biochem IC50 (nM) Mean. The procedure: as §1, §2
Chain of human TYK2 catalytic kinase (JH1) domain (P29597 897-1176): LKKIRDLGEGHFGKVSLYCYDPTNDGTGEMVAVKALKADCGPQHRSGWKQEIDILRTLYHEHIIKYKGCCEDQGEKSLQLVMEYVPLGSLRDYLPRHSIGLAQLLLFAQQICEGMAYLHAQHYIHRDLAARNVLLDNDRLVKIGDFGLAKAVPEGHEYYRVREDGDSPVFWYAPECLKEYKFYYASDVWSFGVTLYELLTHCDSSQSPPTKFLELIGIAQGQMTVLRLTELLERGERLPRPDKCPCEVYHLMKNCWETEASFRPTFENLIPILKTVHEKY
Test [3] concerns the target human JAK2 catalytic kinase (JH1) domain (Homo sapiens (Human), UniProt O60674). Description: ADP-Glo Kinase Assay, recombinant JAK2 catalytic kinase (JH1) domain. To be noted: recombinant JH1 domain 0.2 nM, 15 μM ATP, JAK3-974 peptide, mean, read-out: JAK2 biochem IC50 (nM) Mean. The procedure: as §1, §2
In test [4] the target is human JAK1 catalytic kinase (JH1) domain (Homo sapiens (Human), UniProt P23458). Description: ADP-Glo Kinase Assay, recombinant JAK1 catalytic kinase (JH1) domain. As to conditions: recombinant JH1 domain 4 nM, 35 μM ATP, JAK3-342 peptide, mean, read-out: JAK1 biochem IC50 (nM) Mean. The method, then: as §1, §2
Chain of human JAK1 catalytic kinase (JH1) domain (P23458 875-1153): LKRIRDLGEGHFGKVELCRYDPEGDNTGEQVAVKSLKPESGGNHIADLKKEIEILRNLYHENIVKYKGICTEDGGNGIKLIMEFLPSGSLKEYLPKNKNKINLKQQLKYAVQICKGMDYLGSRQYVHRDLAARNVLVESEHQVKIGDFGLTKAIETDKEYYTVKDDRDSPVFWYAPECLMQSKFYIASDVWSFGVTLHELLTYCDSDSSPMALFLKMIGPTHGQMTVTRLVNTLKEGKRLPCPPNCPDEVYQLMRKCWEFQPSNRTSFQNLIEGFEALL

Chain of human JAK3 catalytic kinase (JH1) domain (P52333 822-1111): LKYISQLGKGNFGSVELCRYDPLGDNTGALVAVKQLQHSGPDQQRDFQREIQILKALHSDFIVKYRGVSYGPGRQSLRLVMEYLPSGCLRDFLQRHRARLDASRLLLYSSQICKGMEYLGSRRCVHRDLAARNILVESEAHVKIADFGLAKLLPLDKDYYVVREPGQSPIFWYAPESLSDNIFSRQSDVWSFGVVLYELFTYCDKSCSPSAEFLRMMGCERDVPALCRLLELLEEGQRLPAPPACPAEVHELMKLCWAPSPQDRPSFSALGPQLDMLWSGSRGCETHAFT
Chain of human JAK2 catalytic kinase (JH1) domain (O60674 849-1124): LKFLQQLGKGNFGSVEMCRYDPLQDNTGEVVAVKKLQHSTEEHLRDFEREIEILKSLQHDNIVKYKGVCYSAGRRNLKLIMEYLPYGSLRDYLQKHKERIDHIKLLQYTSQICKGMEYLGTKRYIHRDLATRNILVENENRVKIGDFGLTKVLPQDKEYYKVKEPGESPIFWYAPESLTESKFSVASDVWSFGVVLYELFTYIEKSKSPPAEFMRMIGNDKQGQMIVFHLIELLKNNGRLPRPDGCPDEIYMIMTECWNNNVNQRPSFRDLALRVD

As for `COc1cc(-c2cc3c(N4CC5CCC(C4)N5C(=O)[C@@H]4C[C@H]4F)ccnc3[nH]2)ccn1` [Example 245, ((1S,2R)-2-fluorocyclopropyl)(3-(2-(2-methoxypyridin-4-yl)-1H-pyrrolo[2,3-b]pyridin-4-yl)-3,8-diazabicyclo[3.2.1]octan-8-yl)methanone], the IC50 in test [1] was 115 nM; in test [2], 0.4 nM; in test [3], 11 nM; in test [4], 7 nM.

In the case of `Cn1cc(-c2cc3c(N4CC5CCC(C4)N5S(=O)(=O)C4CC4)ncnc3[nH]2)cn1` [Example 191], the IC50 in test [1] amounted to 650 nM; in test [2] it was 102 nM; in test [3], 601 nM; in test [4], 1780 nM.

On to `Cn1cc(-c2cc3c(N4CC5CCC(C4)N5C(=O)CC#N)ccnn3c2)cn1` [Example 23, 3-(3-(6-(1-methyl-1H-pyrazol-4-yl)pyrrolo[1,2-b]pyridazin-4-yl)-3,8-diazabicyclo[3.2.1]octan-8-yl)-3-oxopropanenitrile], for which the IC50 amounted to 346 nM in test [1], 9.8 nM in test [2], 117 nM in test [3] and 137 nM in test [4].

As to `Cn1cc(-c2cc3c(N4CC5CCC(C4)N5C(=O)[C@@H]4C[C@@H]4F)ncnn3c2)cn1` [Example 80, ((1S,2S)-2-fluorocyclopropyl)(3-(6-(1-methyl-1H-pyrazol-4-yl)pyrrolo[2,1-f][1,2,4]triazin-4-yl)-3,8-diazabicyclo[3.2.1]octan-8-yl)methanone], the IC50 is 2050 nM in test [1], 483 nM in test [2], 8020 nM in test [3] and 1340 nM in test [4].

In the case of `CNc1nccc(-c2cc3c(N4CC5CCC(C4)N5C(=O)[C@@H]4C[C@H]4F)ccnn3c2)n1` [Example 126, ((1S,2R)-2-fluorocyclopropyl)(3-(6-(2-(methylamino)pyrimidin-4-yl)pyrrolo[1,2-b]pyridazin-4-yl)-3,8-diazabicyclo[3.2.1]octan-8-yl)methanone], the IC50 in test [1] worked out at 1460 nM; in test [2], 8.8 nM; in test [3], 98 nM; in test [4], 54 nM.

Regarding `Cn1cc(-c2cc3c(N4CC5CCC(C4)N5C(=O)[C@@H]4C[C@H]4F)ncnn3c2)c(F)n1` [Example 96, (3-(6-(3-fluoro-1-methyl-1H-pyrazol-4-yl)pyrrolo[2,1-f][1,2,4]triazin-4-yl)-3,8-diazabicyclo[3.2.1]octan-8-yl)((1S,2R)-2-fluorocyclopropyl)methanone], the IC50 in test [1] was 3270 nM; in test [2], 13.7 nM; in test [3] it was 422 nM; in test [4], 718 nM.

Turning to `CNc1cncc(-c2cc3c(N4CC5CCC(C4)N5C(=O)[C@@H]4C[C@H]4F)ccnn3c2)n1` [Example 127, ((1S,2R)-2-fluorocyclopropyl)(3-(6-(6-(methylamino)pyrazin-2-yl)pyrrolo[1,2-b]pyridazin-4-yl)-3,8-diazabicyclo[3.2.1]octan-8-yl)methanone], the half-maximal inhibitory concentration (IC50) is 3140 nM in test [1], 18 nM in test [2], 300 nM in test [3] and 211 nM in test [4].

`N#CC1CC(C(=O)N2C3CCC2CN(c2ncnn4cc(-c5cnn(C(F)F)c5)cc24)C3)C1` (centres unmarked) [Example 12, 3-(3-(6-(1-(difluoromethyl)-1H-pyrazol-4-yl)pyrrolo[2,1-f][1,2,4]triazin-4-yl)-3,8-diazabicyclo[3.2.1]octane-8-carbonyl)cyclobutane-1-carbonitrile]: the IC50 in test [1] was found to be 8350 nM; in test [2] it was 656 nM; in test [3], 7960 nM; in test [4], 2980 nM.

Regarding `O=C([C@@H]1CC1(F)F)N1C2CCC1CN(c1ncnc3[nH]c(-c4cnn(C(F)F)c4)cc13)C2` [Example 222, ((S)-2,2-difluorocyclopropyl)(3-(6-(1-(difluoromethyl)-1H-pyrazol-4-yl)-7H-pyrrolo[2,3-d]pyrimidin-4-yl)-3,8-diazabicyclo[3.2.1]octan-8-yl)methanone], the concentration for half-maximal inhibition (IC50) was 999 nM in test [1], 5.7 nM in test [2], 128 nM in test [3] and 132 nM in test [4].

With `O=C([C@H]1C[C@@H]1F)N1C2CCC1CN(c1ncnn3cc(-c4cnn(C(F)F)c4)cc13)C2` (single isomer, unassigned) [Example 75], the half-inhibitory concentration (IC50) in test [1] was 5060 nM; in test [2] it was 456 nM; in test [3], ≥ 10000 nM; in test [4] it was 1580 nM.

With `Cc1cc(-c2cc3c(N4CC5CCC(C4)N5C(=O)[C@@H]4C[C@H]4F)ncnn3c2)on1` [Example 166], the IC50 in test [1] worked out at 9260 nM; in test [2] it was 56 nM; in test [3], 1050 nM; in test [4] it was 1160 nM.

Consider `Cn1cc(-c2cc3c(N4CC5CCC(C4)N5C(=O)[C@H]4C[C@H]4C#N)ncnn3c2)cn1` (racemic) [Example 65, Rac-(1R,2S)-2-(3-(6-(1-methyl-1H-pyrazol-4-yl)pyrrolo[2,1-f][1,2,4]triazin-4-yl)-3,8-diazabicyclo[3.2.1]octane-8-carbonyl)cyclopropane-1-carbonitrile], for which the IC50 in test [1] stood at 6790 nM; in test [2], 1210 nM; in test [3], 9840 nM; in test [4] it was 6090 nM.

On to `Cn1cc(-c2nc3c(N4CC5CCC(C4)N5C(=O)[C@@H]4C[C@H]4F)ccnc3[nH]2)c(F)n1` [Example 216, (3-(2-(3-fluoro-1-methyl-1H-pyrazol-4-yl)-3H-imidazo[4,5-b]pyridin-7-yl)-3,8-diazabicyclo[3.2.1]octan-8-yl)((1S,2R)-2-fluorocyclopropyl)methanone], for which the IC50 in test [1] was determined as 235 nM; in test [2] it was 1.9 nM; in test [3] it was 14 nM; in test [4] it was 41 nM.

Regarding `O=C(C1CCC1(F)F)N1C2CCC1CN(c1ncnn3cc(-c4cnn(C(F)F)c4)cc13)C2` (centres unmarked) [Example 11, (2,2-difluorocyclobutyl)(3-(6-(1-(difluoromethyl)-1H-pyrazol-4-yl)pyrrolo[2,1-f][1,2,4]triazin-4-yl)-3,8-diazabicyclo[3.2.1]octan-8-yl)methanone], the IC50 in test [1] was 6670 nM; in test [2], 506 nM; in test [3], 8370 nM; in test [4], 1650 nM.

Regarding `O=C([C@@H]1C[C@H]1F)N1C2CCC1CN(c1ncnn3cc(-c4ccnc(C(F)F)c4)cc13)C2` [Example 93, (3-(6-(2-(difluoromethyl)pyridin-4-yl)pyrrolo[2,1-f][1,2,4]triazin-4-yl)-3,8-diazabicyclo[3.2.1]octan-8-yl)((1S,2R)-2-fluorocyclopropyl)methanone], the IC50 came to 3300 nM in test [1], 29.2 nM in test [2], 591 nM in test [3] and 386 nM in test [4].

With `Cc1cc(-c2cc3c(N4CC5CCC(C4)N5C(=O)[C@@H]4C[C@H]4F)ccnn3c2)ncn1` [Example 106, ((1S,2R)-2-fluorocyclopropyl)(3-(6-(6-methylpyrimidin-4-yl)pyrrolo[1,2-b]pyridazin-4-yl)-3,8-diazabicyclo[3.2.1]octan-8-yl)methanone], the half-inhibitory concentration (IC50) in test [1] worked out at 3200 nM; in test [2], 13.7 nM; in test [3], 178 nM; in test [4], 448 nM.

On to `O=C(C1CC1)N1C2CCC1CN(c1ncnn3cc(-c4cnn(C(F)F)c4)c(F)c13)C2` [Example 163], for which the 50% inhibitory concentration (IC50) in test [1] came to 10000 nM; in test [2], 746 nM; in test [3] it was 10000 nM; in test [4], 5120 nM.

Take `CC(C)(F)C(=O)N1C2CCC1CN(c1ncnn3cc(-c4cnn(C(F)F)c4)cc13)C2` [Example 32, 1-(3-(6-(1-(difluoromethyl)-1H-pyrazol-4-yl)pyrrolo[2,1-f][1,2,4]triazin-4-yl)-3,8-diazabicyclo[3.2.1]octan-8-yl)-2-fluoro-2-methylpropan-1-one trifluoroacetate]: the IC50 in test [1] stood at 2990 nM; in test [2] it was 242 nM; in test [3] it was 4400 nM; in test [4], 1800 nM.

As to `O=C(C1CC1)N1C2CCC1CN(c1ncnn3cc(-c4cnn(C5CCOC5)c4)cc13)C2` (centres unmarked) [Example 152], the IC50 worked out at 2590 nM in test [1], 145 nM in test [2], 2150 nM in test [3] and 1670 nM in test [4].

With `N#C[C@@H]1C[C@H]1C(=O)N1C2CCC1CN(c1ncnn3cc(-c4cnn(C(F)F)c4)cc13)C2` (single isomer, unassigned) [Example 78], the IC50 in test [1] turned out to be 6880 nM; in test [2] it was 120 nM; in test [3], 1510 nM; in test [4], 869 nM.
